Experimental data taken from EP0485961A1, “Oncostatin M for stimulating LDL uptake and LDL receptor expression” (Bristol-Myers Squibb Company, priority 1990, dated 1992).

Assays:
Format in all cases: cell-based, human
HepG2 cells = experiment: LDL uptake assay (fluorescent DiI-LDL method); conditions: for LDL UPTAKE % STIMULATION: HepG2
Protocol: LDL uptake in HepG2 cells cultured in 12 well plates (Costar) at 2 X 10^5 per well was assayed by the fluorescent LDL method using a fluorescence microscope and video camera (SIT 66) attached to computer (Laser 25) with JAVA image analysis software (Jandel Scientific, CA) as previously reported (Grove, et al.,). […] Specifically, 2 ug/ml Dil-LDL in serum free media was added to HepG2 monolayers for two hours. The monolayers were washed 3 times to remove free Dil-LDL and fixed with 4% formalin in phosphate-buffered saline. Accumulated fluorescence was measured by quantitating the average intensity of 25 - 50 cells. Three difference fields in each of duplicate or triplicate monolayers were quantitated and averaged. The amount of LDL protein taken up was determined as follows. Unfixed cell monolayers were solubilized with 0.1% sodium dodecyl sulfate, transferred into glass tubes, and the lipids (and Dil) were extracted into chloroform using the Bligh-Dyer extraction procedure. Fluorescence in the chloroform layer was quantitated with a fluorescence spectrophotometer (Perkin-Elmer) and compared with a standard curve generated by extracting Dil from known quantities of Dil-LDL. Coomassie blue kits (Pierce) were used to estimate cell proteins.

[1] = tested on: tyrosine phosphorylation in HepG2 proteins; experiment: Phosphotyrosine proteins (antiphosphotyrosine immunoblot)
Protocol: HepG2 cells were plated into six well plates at 4 x 10^5 cells/well. After 48 hours (about 70% confluency), the cells were incubated with Oncostatin M or drugs for the indicated time, rapidly washed once with ice cold PBS, and lysed with 100ul of SDS-sample buffer containing 1 mM mercaptoethanol and 500 uM sodium vanadate. The bufer was rapidly mixed over the entire well before being removed and heated to 100° C for 15 minutes. The samples (25 ul) were separated by SDS-PAGE on 10-20% gradient gels and […] to Hybond C Extra membranes (Amersham). […] Proteins containing phosphotyrosine were detected using an affinity purified rabbit antiphosphotyrosine antibody followed by ['^251]-labeled protein A (ICN).

diacylglycerol = experiment: Lipid analysis: diacylglycerol levels ([3H]-glycerol labelling, TLC); conditions: genistein
Protocol: Lipids from cells radiolabeled with [^32P]-orthophosphate or with (^3H]-glycerol were extracted by a modification of the method of Bligh and Dyer. Extracts, dried under a stream of nitrogen, were solublized with 100 ul of chloroform and spotted on thin-layer chromatography (TLC) plates (Silica Gel 60, Merck). The phospholipids were resolved either with a solvent system designed to separate the inositides (propanol: 4.3 M ammonium hydroxide, 65:35 v/v) or with a system designed to separate phosphatidylcholine and phosphatidylethanolamine (chloroform:methanol:acetic acid:water (50:35:8:1, v/v). Neutral lipids were resolved in a tank containing benzene:ethyl acetate (80:20, v/v). The radiolabeled phospholipids were identified as spots on autoradiographs which comigrated with authentic standards (detected with iodine vapors), were scraped into scintillation vials, and were quantitated in a scintillation counter. Neutral lipid standards (diacylglycerol and triacylglycerol) which were added to the [^3H)- glycerol labeled lipid extracts before chromatography were identified with iodine vapors, scraped into scintillation vials, and analyzed as outlined above.

CCCCCCCCCCCCCC(=O)O[C@@H]1[C@@H](C)[C@@]2(O)[C@@H](C=C(CO)C[C@]3(O)C(=O)C(C)=C[C@@H]23)[C@@H]2C(C)(C)[C@]12OC(C)=O [PMA, phorbol 12-myristate 13-acetate]
LDL uptake (HepG2 cells; PMA 10 nM, 4 hours, time dependency similar to Oncostatin M): induced LDL uptake | effect on the inhibition of LDLR expression with genistein (HepG2 cells; PMA 50 nM added to genistein-inhibited HepG2 cells): reversed

vanadate
LDL UPTAKE % STIMULATION (HepG2 cells): 6% | effect on LDLR expression stimulation by Oncostatin M (HepG2 cells; vanadate with Oncostatin M): synergistically enhance | TYROSINE PHOSHORYLATION ([1]; HepG2, grades - to + + + + +, legend not given): + + + | effect on tyrosine kinase stimulation by Oncostatin M ([1]; vanadate with Oncostatin M): synergistically enhance

O=c1c(-c2ccc(O)cc2)coc2cc(O)cc(O)c12 [Genistein]
LDL UPTAKE % STIMULATION (HepG2 cells): -10% | effect on Oncostatin M-induced elevations in LDLR activity (HepG2 cells; genistein): inhibited | effect on Oncostatin M-induced elevations in diacylglycerol (diacylglycerol): inhibited | effect on Oncostatin M-induced tyrosine phosphorylation ([1]; genistein 30 ug/ml, 30 minutes before Oncostatin M (100 ng/ml, 10 minutes)): mitigated

CC1CNCCN1S(=O)(=O)c1cccc2cnccc12 (stereo not drawn) [H-7]
effect on increase in LDL uptake induced by Oncostatin M (HepG2 cells; 10 ug/ml H-7 for 30 min, then 4 hours Oncostatin M (100 ng/ml)): prevented the increases in LDL uptake | effect on increase in LDL uptake induced by PMA (HepG2 cells; 10 ug/ml H-7 for 30 min, then 4 hours PMA (10 nM)): prevented the increases in LDL uptake
